Patent publication US20090075951A1, “Methods and Reagents for the Treatment of Inflammatory Disorders” (CombinatoRx, Inc., priority 2003, published 2009)
Read-outs that look alike come from different tables or passages of the source.

Tested on: TNFα secretion from PMA/ionomycin stimulated white blood cells from human buffy coat
Assay: TNFα secretion assay, PMA/ionomycin stimulation
Procedure: Various concentrations of each test compound were added at the time of stimulation. […] After the plate was washed with 0.1% Tween 20/PBS, an HRP-luminescent substrate was added to each well and light intensity measured using a LJL Analyst plate luminometer.

SMILES: C[C@H]1C[C@H]2[C@@H]3CCC4=CC(=O)C=C[C@]4(C)[C@@]3(F)[C@@H](O)C[C@]2(C)[C@@]1(O)C(=O)CO [Betamethasone]
- inhibition at […] (read-out: inhibition of TNFα secretion, Betamethasone 38 nM, Imipramine nM: 0, 99, 394, 1578, 6311, 25000): 35.8%
- inhibition at […] (read-out: inhibition of TNFα secretion, Betamethasone 38 nM, Nortriptyline nM: 0, 52, 208, 834, 3336, 13000): 9.93%
- inhibition at 2.434 µM (read-out: inhibition of TNFα secretion, Betamethasone 2434 nM, Nortriptyline nM: 0, 52, 208, 834, 3336, 13000): 38.9%
- inhibition at […] (read-out: percent inhibition of TNFα secretion, Betamethasone 38 nM, Amoxapine nM: 0, 12, 50, 199, 797, 3187): 26.3%
- inhibition at […] (read-out: percent inhibition of TNFα secretion, Betamethasone 38 nM, Clomipramine nM: 0, 45, 178, 712, 2848, 11000): 36%
- inhibition at […] (read-out: percent inhibition of TNFα secretion, Betamethasone 38 nM, Desipramine nM: 0, 50, 200, 799, 3197, 13000): 17.3%
- inhibition at 2.434 µM (read-out: percent inhibition of TNFα secretion, Betamethasone 2434 nM, Desipramine nM: 0, 50, 200, 799, 3197, 13000): 48.9%

SMILES: CCCC1O[C@@H]2C[C@H]3[C@@H]4CCC5=CC(=O)C=C[C@]5(C)[C@H]4[C@@H](O)C[C@]3(C)[C@]2(C(=O)CO)O1 (stereo partly drawn) [Budesonide, budesonide]
- inhibition at […] (read-out: inhibition of TNFα secretion, Budesonide 35 nM, Imipramine nM: 0, 99, 394, 1578, 6311, 25000): 42.1%
- inhibition at […] (read-out: inhibition of TNFα secretion, Budesonide 35 nM, Nortriptyline nM: 0, 52, 208, 834, 3336, 13000): 36%
- inhibition at […] (read-out: inhibition of TNFα secretion, Budesonide 35 nM, Protriptyline nM: 0, 52, 208, 834, 3336, 13000): 44.5%
- inhibition at […] (read-out: percent inhibition of TNFα secretion, Budesonide 35 nM, Amitriptyline nM: 0, 50, 199, 796, 3186, 13000): 42%
- inhibition at […] (read-out: percent inhibition of TNFα secretion, Budesonide 35 nM, Amoxapine nM: 0, 12, 50, 199, 797, 3187): 36.7%
- inhibition at […] (read-out: percent inhibition of TNFα secretion, Budesonide 35 nM, Clomipramine nM: 0, 45, 178, 712, 2848, 11000): 45.3%
- inhibition at […] (read-out: percent inhibition of TNFα secretion, Budesonide 35 nM, Desipramine nM: 0, 50, 200, 799, 3197, 13000): 48.1%

SMILES: C[C@@H]1C[C@H]2[C@@H]3CCC4=CC(=O)C=C[C@]4(C)[C@@]3(F)[C@@H](O)C[C@]2(C)[C@@]1(O)C(=O)CO [Dexamethasone, dexamethasone]
- inhibition at […] (read-out: inhibition of TNFα secretion, Dexamethasone 38 nM, Desipramine nM: 0, 50, 200, 799, 3197, 13000): 31.3%
- inhibition at […] (read-out: inhibition of TNFα secretion, Dexamethasone 38 nM, Imipramine nM: 0, 99, 394, 1578, 6311, 25000): 30%
- inhibition at […] (read-out: inhibition of TNFα secretion, Dexamethasone 38 nM, Nortriptyline nM: 0, 52, 208, 834, 3336, 13000): 31%
- inhibition at […] (read-out: percent inhibition of TNFα secretion, Dexamethasone 38 nM, Amitriptyline nM: 0, 50, 199, 796, 3186, 13000): 31.1%
- inhibition at […] (read-out: percent inhibition of TNFα secretion, Dexamethasone 38 nM, Amoxapine nM: 0, 12, 50, 199, 797, 3187): 32%
- inhibition at […] (read-out: percent inhibition of TNFα secretion, Dexamethasone 38 nM, Clomipramine nM: 0, 45, 178, 712, 2848, 11000): 35.6%

SMILES: CC(=O)OCC(=O)[C@@]1(OC(C)=O)[C@@H](C)C[C@H]2[C@@H]3C[C@H](F)C4=CC(=O)C=C[C@]4(C)[C@@]3(F)[C@@H](O)C[C@@]21C [Diflorasone Diacetate]
- inhibition at 0.03 µM (read-out: inhibition of TNFα secretion, Diflorasone Diacetate 30 nM, Desipramine nM: 0, 50, 200, 799, 3197, 13000): 25.4%
- inhibition at 0.03 µM (read-out: inhibition of TNFα secretion, Diflorasone Diacetate 30 nM, Imipramine nM: 0, 99, 394, 1578, 6311, 25000): 29.6%
- inhibition at 0.03 µM (read-out: inhibition of TNFα secretion, Diflorasone Diacetate 30 nM, Protriptyline nM: 0, 52, 208, 834, 3336, 13000): 28.2%
- inhibition at 1.941 µM (read-out: inhibition of TNFα secretion, Diflorasone Diacetate 1941 nM, Desipramine nM: 0, 50, 200, 799, 3197, 13000): 46.9%
- inhibition at 1.941 µM (read-out: inhibition of TNFα secretion, Diflorasone Diacetate 1941 nM, Imipramine nM: 0, 99, 394, 1578, 6311, 25000): 45.8%
- inhibition at 1.941 µM (read-out: inhibition of TNFα secretion, Diflorasone Diacetate 1941 nM, Protriptyline nM: 0, 52, 208, 834, 3336, 13000): 45.3%
- inhibition at 0.03 µM (read-out: percent inhibition of TNFα secretion, Diflorasone Diacetate 30 nM, Amitriptyline nM: 0, 50, 199, 796, 3186, 13000): 26.1%
- inhibition at […] (read-out: percent inhibition of TNFα secretion, Diflorasone Diacetate 38 nM, Clomipramine nM by grid row: r5 0, r6 12, r7 50, r8 199, r9 797, r10 3187): 43.2%
- inhibition at 1.941 µM (read-out: percent inhibition of TNFα secretion, Diflorasone Diacetate 1941 nM, Amitriptyline nM: 0, 50, 199, 796, 3186, 13000): 45.2%

SMILES: C[C@]12CCC(=O)C=C1CC[C@@H]1[C@@H]2[C@@H](O)C[C@@]2(C)[C@H]1CC[C@]2(O)C(=O)CO [Hydrocortisone, hydrocortisone]
- inhibition at […] (read-out: inhibition of TNFα secretion, Hydrocortisone 21 nM, Desipramine nM: 0, 50, 200, 799, 3197, 13000): -1.79%
- inhibition at […] (read-out: inhibition of TNFα secretion, Hydrocortisone 21 nM, Imipramine nM: 0, 99, 394, 1578, 6311, 25000): -4.17%
- inhibition at […] (read-out: inhibition of TNFα secretion, Hydrocortisone 21 nM, Nortriptyline nM: 0, 52, 208, 834, 3336, 13000): 4.44%
- inhibition at […] (read-out: inhibition of TNFα secretion, Hydrocortisone 21 nM, Protriptyline nM: 0, 52, 208, 834, 3336, 13000): 2.86%
- inhibition at […] (read-out: inhibition of TNFα secretion, Hydrocortisone 83 nM, Desipramine nM: 0, 50, 200, 799, 3197, 13000): 9.01%
- inhibition at […] (read-out: inhibition of TNFα secretion, Hydrocortisone 83 nM, Imipramine nM: 0, 99, 394, 1578, 6311, 25000): 5.91%
- inhibition at […] (read-out: inhibition of TNFα secretion, Hydrocortisone 83 nM, Nortriptyline nM: 0, 52, 208, 834, 3336, 13000): 13.6%
- inhibition at […] (read-out: inhibition of TNFα secretion, Hydrocortisone 83 nM, Protriptyline nM: 0, 52, 208, 834, 3336, 13000): 13.6%
- inhibition at 1.324 µM (read-out: inhibition of TNFα secretion, Hydrocortisone 1324 nM, Desipramine nM: 0, 50, 200, 799, 3197, 13000): 34.4%
- inhibition at 1.324 µM (read-out: inhibition of TNFα secretion, Hydrocortisone 1324 nM, Imipramine nM: 0, 99, 394, 1578, 6311, 25000): 30.3%
- inhibition at 1.324 µM (read-out: inhibition of TNFα secretion, Hydrocortisone 1324 nM, Nortriptyline nM: 0, 52, 208, 834, 3336, 13000): 35.7%
- inhibition at 1.324 µM (read-out: inhibition of TNFα secretion, Hydrocortisone 1324 nM, Protriptyline nM: 0, 52, 208, 834, 3336, 13000): 36.8%
- inhibition at 5.297 µM (read-out: inhibition of TNFα secretion, Hydrocortisone 5297 nM, Desipramine nM: 0, 50, 200, 799, 3197, 13000): 38.6%
- inhibition at 5.297 µM (read-out: inhibition of TNFα secretion, Hydrocortisone 5297 nM, Imipramine nM: 0, 99, 394, 1578, 6311, 25000): 33.8%
- inhibition at 5.297 µM (read-out: inhibition of TNFα secretion, Hydrocortisone 5297 nM, Nortriptyline nM: 0, 52, 208, 834, 3336, 13000): 36.5%
- inhibition at 5.297 µM (read-out: inhibition of TNFα secretion, Hydrocortisone 5297 nM, Protriptyline nM: 0, 52, 208, 834, 3336, 13000): 38.2%
- inhibition at […] (read-out: percent inhibition of TNFα secretion, Hydrocortisone 21 nM, Amitriptyline nM: 0, 50, 199, 796, 3186, 13000): -2.95%
- inhibition at […] (read-out: percent inhibition of TNFα secretion, Hydrocortisone 21 nM, Amoxapine nM: 0, 12, 50, 199, 797, 3187): 1.78%
- inhibition at […] (read-out: percent inhibition of TNFα secretion, Hydrocortisone 21 nM, Clomipramine nM: 0, 45, 178, 712, 2848, 11000): -0.248%
- inhibition at […] (read-out: percent inhibition of TNFα secretion, Hydrocortisone 83 nM, Amitriptyline nM: 0, 50, 199, 796, 3186, 13000): 5.95%
- inhibition at […] (read-out: percent inhibition of TNFα secretion, Hydrocortisone 83 nM, Amoxapine nM: 0, 12, 50, 199, 797, 3187): 11.4%
- inhibition at […] (read-out: percent inhibition of TNFα secretion, Hydrocortisone 83 nM, Clomipramine nM: 0, 45, 178, 712, 2848, 11000): 9.9%
- inhibition at 1.324 µM (read-out: percent inhibition of TNFα secretion, Hydrocortisone 1324 nM, Amitriptyline nM: 0, 50, 199, 796, 3186, 13000): 32.2%
- inhibition at 1.324 µM (read-out: percent inhibition of TNFα secretion, Hydrocortisone 1324 nM, Amoxapine nM: 0, 12, 50, 199, 797, 3187): 31.6%
- inhibition at 1.324 µM (read-out: percent inhibition of TNFα secretion, Hydrocortisone 1324 nM, Clomipramine nM: 0, 45, 178, 712, 2848, 11000): 33%
- inhibition at 5.297 µM (read-out: percent inhibition of TNFα secretion, Hydrocortisone 5297 nM, Amitriptyline nM: 0, 50, 199, 796, 3186, 13000): 36.9%
- inhibition at 5.297 µM (read-out: percent inhibition of TNFα secretion, Hydrocortisone 5297 nM, Amoxapine nM: 0, 12, 50, 199, 797, 3187): 31.9%
- inhibition at 5.297 µM (read-out: percent inhibition of TNFα secretion, Hydrocortisone 5297 nM, Clomipramine nM: 0, 45, 178, 712, 2848, 11000): 37.1%
